Measurements published in patent US9856219B2, “Substituted quinoline compounds as S-nitrosoglutathione reductase inhibitors” (Nivalis Therapeutics, Inc., priority 2010, dated 2018).

How the values were obtained:
[1] = system: cigarette smoke-induced COPD (BALF cells); assay: Subchronic (11 day) cigarette smoke exposure COPD model; format: in vivo, female C57Bl/6 mice; settings: for effects compared to positive control roflumilast: roflumilast 5 mg/kg/day
Method: (§1) The efficacy of GSNOR inhibitors was assessed in a mouse model of chronic obstructive pulmonary disease (COPD) induced by short duration (4 days or 11 days) of exposure to cigarette smoke. Infiltration of inflammatory cells into the bronchoalveolar lavage fluid (BALF) and BALF levels of chemokines involved in inflammation and tissue turnover/repair were measured to assess the influences of GSNOR inhibitors on some of the early events associated with the initiation and progression of COPD.
Efficacy of GSNOR inhibitors against COPD was explored using acute (4 day) and subchronic (11 day) models of cigarette smoke-induced COPD in mice. […] In animal models, changes in lung pathology are only evident after extended (several months) duration of exposure to cigarette smoke, thus making chronic models prohibitive as effective screening tools. More recently, models exploring inflammatory responses after short duration (2 weeks or less) of smoke exposure in mice have been utilized as tools for screening efficacy and mechanisms of action of novel therapeutics against COPD. The key roles of inflammation in the initiation and progression of COPD, make these short duration models relevant for initial tests of efficacy of novel therapeutics.
Female C57Bl/6 mice (N=10 per group) were exposed to cigarette smoke generated from Marlboro 100 cigarettes without filters. Exposure times were 25 min. on study day 1, 35 min. on study day 2, and 45 min. on study days 3 to 11. GSNOR inhibitors were administered one hour prior to smoke exposure on each day. GSNOR inhibitors were dosed orally at 1 to 10 mg/kg/day for 11 days. The effects of GSNOR inhibitors were assessed by quantitating the number of total cells, and leukocytes differentials in the BALF via light microscopy at 24 h after the last exposure. The effect of GSNOR inhibitors were compared to vehicle treated controls and expressed as percent inhibition of the cigarette smoke induced increases in BALF cell numbers. Roflumilast was used as the positive control for the study and was dosed at 5 mg/kg/day. A group of naïve mice (N=10) was exposed to air and dosed with vehicle as a negative control for the study.

[2] = system: acute DSS-induced IBD; assay: Acute prophylactic model of DSS-induced IBD; format: in vivo, male C57Bl/6 mice
Source text: Acute and chronic models of dextran sodium sulfate (DSS)-induced IBD in mice were used to explore efficacy of GSNORi against this disease. Acute and chronic DSS-induced IBD are widely used and well characterized models that induce pathological changes in the colon similar to those observed in the human disease. In these models and in human disease, epithelial cells within the crypts of the colon are disrupted, leading to dysfunction of the epithelial barrier and the ensuing tissue inflammation, edema, and ulceration. GSNORi therapy may benefit IBD by restoring s-nitrosoglutathione (GSNO) levels, and thus prevent or reverse the epithelial barrier dysfunction. Experimental IBD was induced by administration of DSS in the drinking water of male C57Bl/6 mice (N=8 to 10 mice per group) for 6 consecutive days. GSNORi was dosed orally at doses of 0.1 to 10 mg/kg/day for 10 days starting two days prior to and continuing two days post DSS exposure. Two days post DSS exposure, the effect of GSNORi was assessed in a blinded fashion via endoscopy and histopathology using a five point scale ranging from a score=0 (normal tissue) through a score=4 (ulcerative tissue damage and marked pathological changes). Levels of circulating cytokines involved in inflammatory pathways were also assessed. The effect of GSNORi was compared to vehicle treated controls. The corticosteroid, prednisolone, was used as the positive control in this study and was administered daily at 3 mg/kg/day via oral dosing. Naïve mice (N=5) were also assessed as a normal tissue control.

[3] = system: chronic DSS-induced IBD; assay: Chronic treatment model of DSS-induced IBD; format: in vivo, male C57Bl/6 mice; settings: oral 10 mg/kg/day for up to 14 consecutive days, treatment regimen; p<0.05
Source text: Acute and chronic models of dextran sodium sulfate (DSS)-induced IBD in mice were used to explore efficacy of GSNORi against this disease. Acute and chronic DSS-induced IBD are widely used and well characterized models that induce pathological changes in the colon similar to those observed in the human disease. In these models and in human disease, epithelial cells within the crypts of the colon are disrupted, leading to dysfunction of the epithelial barrier and the ensuing tissue inflammation, edema, and ulceration. GSNORi therapy may benefit IBD by restoring s-nitrosoglutathione (GSNO) levels, and thus prevent or reverse the epithelial barrier dysfunction.
Experimental IBD was induced by administration of DSS in the drinking water of male C57Bl/6 mice (N=10 to 12 mice per group) for 6 consecutive days. GSNORi was dosed orally at doses of 10 mg/kg/day for 14 days starting one day after cessation of DSS exposure. Efficacy of GSNORi was assessed in a blinded fashion via endoscopy after 7 days and 14 days of GSNORi dosing and via histopathology after 14 days of GSNORi dosing using a five point scale ranging from a score=0 (normal tissue) through a score=4 (ulcerative tissue damage and marked pathological changes). Levels of circulating cytokines involved in inflammatory pathways were also assessed. […] Naïve mice (N=5) were also assessed as a normal tissue control.

[4] = system: cigarette smoke-induced COPD (BALF cells and chemokines); assay: Acute (4 day) cigarette smoke exposure COPD model; format: in vivo, female C57Bl/6 mice; settings: oral 10 mg/kg/day for 7 days
Method: as §1
Efficacy of GSNOR inhibitors against COPD was explored using acute (4 day) and subchronic (11 day) models of cigarette smoke-induced COPD in mice. […] In animal models, changes in lung pathology are only evident after extended (several months) duration of exposure to cigarette smoke, thus making chronic models prohibitive as effective screening tools. […]
Female C57Bl/6 mice (N=8 per group) were exposed to cigarette smoke using a whole body exposure chamber. […] The effects of GSNOR inhibitors were assessed by quantitating the numbers of total cells, leukocytes, and leukocytes differentials in the BALF via light microscopy and the levels of BALF chemokines via ELISA at approximately 24 h after the last smoke exposure. […]

[5] = oral 10 mg/kg/day for 10 consecutive days, prophylactic regimen

`O=C(O)c1ccc(-c2ccc3cc(O)ccc3n2)c(Cl)c1` [Compound 8, 3-chloro-4-(6-hydroxyquinolin-2-yl)benzoic acid] was tested, and the “dose response of effect” value ([1]; oral 1, 5, or 10 mg/kg/day) was “no dose response”, the “effects compared to positive control roflumilast” value [1] was “comparable to those of roflumilast” and the “decrease of percent of mice with severe colon injury scores via endoscopy, of vehicle control” value [2, 5] was 44%. The “decrease of percent of mice with severe colon injury scores via histopathology, of vehicle control” value [2, 5] was 26%.

In the case of `O=C(O)c1ccc(-c2ccc3cc(O)ccc3n2)c(F)c1` [Compound 13, 3-fluoro-4-(6-hydroxyquinolin-2-yl)benzoic acid], the “effects compared to positive control roflumilast” value [1] is reported as “comparable to those of roflumilast”, the “decrease of percent of mice with severe colon injury scores via endoscopy, of vehicle control” value [3] is reported as 52% and the “decrease of percent of mice with severe colon injury scores via histopathology, of vehicle control” value [3] is reported as 53%.

With `Cc1cc(C(=O)O)ccc1-c1ccc2cc(O)ccc2n1` [Compound 27, 4-(6-hydroxyquinolin-2-yl)-3-methylbenzoic acid] the “effects compared to positive control roflumilast” value [1] was “comparable to those of roflumilast”.

In the case of `O=C(O)c1ccc(-c2ccc3cc(O)ccc3n2)cc1` [Compound 3, 4-(6-hydroxyquinolin-2-yl)benzoic acid], the BALF chemokines [4] is reported as “restored BALF chemokines towards levels observed in naïve mice”, the “effects compared to positive control roflumilast” value [4] is reported as “comparable to or greater than those observed for roflumilast” and the circulating inflammatory cytokines ([2]; oral 0.1, 1, or 10 mg/kg/day for 10 days, prophylactic regimen) is reported as “restored circulating inflammatory cytokines towards levels observed in untreated naïve mice”. For the same molecule, the “effects compared to positive control prednisolone” value ([2]; prednisolone 3 mg/kg/day oral) was “comparable to or greater than those observed for prednisolone”.
